# Test system: Cal27 xenograft
# Test: Tumorigenicity assay, HNC xenograft model
# Format: in vivo, BALB/c athymic nude mice
# Procedure: Figure 7 Therapeutic effect of momordicine-I in Cal27 xenograft model. Cal27 cells (1.5 × 10^6) cells were injected subcutaneously into the flank of nude mice. After formation of palpable tumor, mice were randomly divided into three groups (n = 5): Control (without any treatment), BME group (30% BME through drinking water) and M-I group (30 mg/kg IP, once in a day and every day). (A) Body weight was measured in control and treated mice. (B) Tumors were measured using a slide caliper and tumor volumes were calculated. Arrow indicates starting point BME/ M-I treatment. (C,D) Control or treated tumor lysates were subjected to Western blot analysis for c-Met and c-Myc expression using specific antibodies and representative bands are shown. The blot was reprobed with an antibody to Actin for normalization. […] Small bar indicates standard error (*, p < 0.05; **, p < 0.01; *** p < 0.001).
# JHU029 or Cal27 cells (1.5 × 10^6) containing 40% Matrigel were injected subcutaneously into the flank of BALB/c athymic nude mice (7–8 weeks old). When the palpable tumor was developed (>60 mm^3), mice were divided into three groups randomly, 5 mice in each group. The control group was without any treatment. The BME group received 30% (v/v) BME through drinking water. M-I group received 30 mg/kg dose of M-I once in day, every day. Body weight was monitored, and tumor size was measured using a slide caliper and volume was calculated using the formula ½ L × W^2. After animal sacrifice tumors were dissected out and snap frozen in liquid nitrogen for further analysis. All the animal experiments were carried out in accordance NIH guidelines, following a protocol approved (1017) by the Institutional Animal Care and Use Committee (IACUC) of Saint Louis University.
# [1] = Cal27 xenograft tumor lysates, Western blot, vs control
structure (smiles),measurement,setting,value
"CC(C)=CC(O)CC(C)[C@H]1CC[C@@]2(C)[C@@H]3[C@@H](O)C=C4[C@@H](CC[C@H](O)C4(C)C)[C@]3(C=O)CC[C@]12C (stereo partly drawn) [M-I, (3S, 7S, 8S, 9R, 10R, 13R, 14S, 17R) 3,7-dihydroxy-17-(4-hydroxy-6-methylhept-5-en-2-yl)-4,4,13,14-tetramethyl-2,3,7,8,10,11, 12,15,16,17-decahydro-1H-cyclopenta[a]phenanthrene-9-carbaldehyde]",c-Met expression in tumors,[1],significant reduction
same,c-Myc expression in tumors,[1],significant reduction
same,reduction of tumor growth,"Cal27 xenograft, nude mice, M-I 30 mg/kg IP once a day or 30% BME in drinking water",~ 50%
same,body weight,"Cal27 xenograft, throughout the experiment",increasing body weight
